Results on four compounds are retold here after patent US20220402872A1, “PHOTOPOLYMERIZABLE ANTIBACTERIAL MONOMER” (UNIVERSITA' DEGLI STUDI DI TRIESTE, priority 2019, published 2022).

SMILES strings stand for the structures.

What all share (format): cell-based
Test [1] relates to S. mutans bacterial suspension (ATCC 25175). The experiment in a line: Direct contact test (DCT) in bonding resin R2. The method, then: The DCT test is based on the turbidimetric determination of bacterial growth in 96-well microplates.
On the wall of each well, 15 μL of the resin to be tested are polymerized for 40 s, using a VALO® Grand LED curing light (Ultradent, Milan, Italy) in standard mode (1000 mW/cm^2, 2 maximum of emission in the ranges of wavelengths 395-415 nm and 440-480 nm);
In this way the side walls of the wells are coated with the polymerized material under test. The wells are then washed with phosphate buffered saline (PBS) before inoculating them with bacteria. Keeping the plate in vertical position, 10 μL of S. mutans bacterial suspension (ATCC 25175) in brain heart infusion medium (BHI) from an o/n culture, is then deposited on the layer of material present on the side walls of the wells. The plate is held upright for 1 hour to allow direct contact between bacteria and the cured material. 200 μL culture broth is then added to each of the wells with gentle mixing. The microplate is then placed in the chamber of a spectrophotometer for ELISA plates reading at 37° C. and the optical density in each well is measured at 600 nm at regular intervals (every 30 minutes for 18 hours). The whole experiment is conducted under aseptic conditions and is repeated on three microplates to ensure reproducibility of the result. 24 wells for each microplate were tested for each sample.
The bactericidal properties of the compounds according to Examples 1, 5, 6 and 7 within a reference bonding resin called R2 were tested using the “Direct contact test (DCT)” method described above. As a negative reference, the reference bonding resin was used without adding compounds according to the invention.
The reference resin called R2 has the following composition (% by weight): • 70% Bis-GMA (bisphenol A glycidyl dimethacrylate, CAS 1565-94-2, Sigma-Aldrich); • 28.75% TEGDMA (triethylene glycol dimethacrylate, CAS 109-16-0, Sigma-Aldrich); • 0.25% CQ (Camphorquinone, CAS 10373-78-1, Sigma-Aldrich); • 1% EDMAD (ethyl-4-dimethylamino benzoate, CAS 10287-53-3, Sigma-Aldrich) and was diluted with 20% by weight of EtOH for use.
For the tests execution, different quantities of the compounds according to examples 1, 5, 6 and 7 were added to the resin R2 in a quantity range from 0.1 to 10% by weight. The homogeneity of the material to be tested was ensured before application in the wells by carrying out a sonication (50%, 5 min) and mixing with Vortex (800 rpm, 5 min) of the various resins added with the compound according to the invention.

The subject of a further test is S. Mitis (ATCC 49456). Description: Determination of the minimum inhibitory concentration (MIC). The note with it: Streptococcus mitis, ATCC49456. Here is the method: (§1) A colony of bacterium taken from agar plate is inoculated in Brain Hearth Infusion medium (BHI) and grown overnight at 37° C. The next day, the bacteria are diluted in fresh medium containing the phenol red indicator, up to a density of 10^6 bacteria/mL.
(§2) A stock solution of 2 mg/mL of compound is prepared in BHI medium containing phenol red.
(§3) In a 96-well plate, the compound stock solution is diluted serially (the concentration is halved at each step) to obtain the following final concentrations after addition of the bacteria suspension: 1 mg/mL; 0.5 mg/mL; 0.25 mg/mL; 0.125 mg/mL; 0.065 mg/mL; 0.032 mg/mL; 0.016 mg/mL; 0.008 mg/mL; 0.004 mg/mL; 0.002 mg/mL; 0.001 mg/mL. A compound-free medium is used as a growth control. A volume of bacterial suspension equal to 0.5*10^6 bacteria/mL is added to each well containing the compound and the control. The dish is incubated at 37° C. for 24 hours. Bacterial growth in each well is detected by the phenol red, which turns from red to yellow following acidification of the medium induced by bacterial metabolism. The lowest concentration of the compound causing no evident color change corresponds to the MIC.
(§4) The compounds according to Examples 1, 3, 5, 6, and 7 were tested on bacterial strains different from S. mutans with the same methods described above, obtaining the MIC and MBC values reported in Table 2.

In the next test the test system is E. coli (ATCC25922). Described as above. The conditions noted are these: Escherichia coli. The method, then:
as §1, §2, §3, §4

The subject of a further test is S. Sanguis (ATCC 10556). Described as above. Here is the method:
as §1, §2, §3, §4

The test system of another test is S. Aureus (ATCC 25923). Described as above. The conditions noted are these: Staphylococcus aureus, ATCC25923. The method, then:
as §1, §2, §3, §4

For another test, the system named is S. mutans (ATCC 25175). The description is as above. The note with it: Streptococcus mutans, ATCC25175; for MIC: against S. Mutans. The method, then:
as §1, §2, §3
In order to test the antibacterial properties of the compounds prepared in Examples 1-8, on colonies of S. mutans (ATCC 25175), a bacterium commonly found in the human oral cavity, a test was set up to determine the minimum inhibitory concentration (MIC) and the minimum bactericidal concentration (MBC) according to the “Determination of minimum inhibitory concentration (MIC)” methods and “Determination of minimum bactericidal concentration (MBC)” described above.

Turning to `C=C(C)C(=O)OCC[N+](CC)(CC)CCCCCCCCCCCC[N+](CC)(CC)CCOC(=O)C(=C)C.[Br-].[Br-]` [Example 5], the “inhibition of bacterial survival by contact (optical density)” value (“inhibition of bacterial survival” for short) in test [1] (1% by weight in resin R2) is given as “able to inhibit bacterial survival by contact”. Also, the minimal inhibitory concentration (MIC) in the test with S. Mitis (ATCC 49456) was 39 µg/mL; with E. coli (ATCC25922) it was 78 µg/mL; in the test on S. Sanguis (ATCC 10556) it was 20 µg/mL; in the test with S. Aureus (ATCC 25923) it was 20 µg/mL; against S. mutans (ATCC 25175) it was 10 to 20 µg/mL.
In the case of `C=C(C)C(=O)Nc1ccc([N+](C)(C)CCCCCCCCCCCC[N+](C)(C)c2ccc(NC(=O)C(C)=O)cc2)cc1.[Br-].[Br-]` [Example 6], the “inhibition of bacterial survival” value in test [1] (0.5% by weight in resin R2) was “able to inhibit bacterial survival by contact”. In addition, the MIC with S. Mitis (ATCC 49456) was 10 µg/mL; against E. coli (ATCC25922) it was 2 µg/mL; against S. Sanguis (ATCC 10556), 5 µg/mL; in the test on S. Aureus (ATCC 25923) it was 10 µg/mL; in the test on S. mutans (ATCC 25175), 5 µg/mL. Further, in the test on S. mutans (ATCC 25175) (against the analyzed bacteria strains), the MBC lay in the range of 5 to 10 µg/mL.
For the compound `C=C(C)C(=O)OCC[N+](C)(C)CCCCCCCCCCCC[N+](C)(C)CCOC(=O)C(=C)C.[Br-].[Br-]` [Example 1], the “inhibition of bacterial survival” value in test [1] (1% by weight in resin R2) was “able to inhibit bacterial survival by contact”. Also, the MIC against S. Mitis (ATCC 49456) came to 310 µg/mL; in the test on E. coli (ATCC25922), 625 µg/mL; in the test with S. Sanguis (ATCC 10556), 310 µg/mL; in the test on S. Aureus (ATCC 25923), 156 µg/mL; against S. mutans (ATCC 25175) it was 150 µg/mL.
In the case of `C=C(C)C(=O)NCc1cc[n+](CCCCCCCCCCCC[n+]2ccc(CNC(=O)C(=C)C)cc2)cc1.[Br-].[Br-]` [Example 7], the “inhibition of bacterial survival” value in test [1] (1% by weight in resin R2) is “able to inhibit bacterial survival by contact”. Besides, the MIC turned out to be 20 µg/mL against S. Mitis (ATCC 49456); 2.5 µg/mL in the test on E. coli (ATCC25922); 10 µg/mL against S. Sanguis (ATCC 10556); 2.5 µg/mL with S. Aureus (ATCC 25923); 2.5 µg/mL with S. mutans (ATCC 25175).
